Experimental data published in PMC6934184, “Selective DNA-PKcs inhibition extends the therapeutic index of localized radiotherapy and chemotherapy” (The Journal of Clinical Investigation, 2019).

Molecular target: T1, MET (cMet) (Homo sapiens, UniProt P08581)
T1 construct: purchased Thermo Fisher Scientific (Life Technologies) SelectScreen
Test: SelectScreen Z'LYTE
Format: biochemical
Outline: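 SelectScreen broad panel; activity (Z'LYTE, Adapta) plus binding formats. ATP: Km app for CSF1R Z'LYTE; 10 for CAMK1 Adapta. Readout = % per kinase.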

T1 sequence (P08581 25-1390): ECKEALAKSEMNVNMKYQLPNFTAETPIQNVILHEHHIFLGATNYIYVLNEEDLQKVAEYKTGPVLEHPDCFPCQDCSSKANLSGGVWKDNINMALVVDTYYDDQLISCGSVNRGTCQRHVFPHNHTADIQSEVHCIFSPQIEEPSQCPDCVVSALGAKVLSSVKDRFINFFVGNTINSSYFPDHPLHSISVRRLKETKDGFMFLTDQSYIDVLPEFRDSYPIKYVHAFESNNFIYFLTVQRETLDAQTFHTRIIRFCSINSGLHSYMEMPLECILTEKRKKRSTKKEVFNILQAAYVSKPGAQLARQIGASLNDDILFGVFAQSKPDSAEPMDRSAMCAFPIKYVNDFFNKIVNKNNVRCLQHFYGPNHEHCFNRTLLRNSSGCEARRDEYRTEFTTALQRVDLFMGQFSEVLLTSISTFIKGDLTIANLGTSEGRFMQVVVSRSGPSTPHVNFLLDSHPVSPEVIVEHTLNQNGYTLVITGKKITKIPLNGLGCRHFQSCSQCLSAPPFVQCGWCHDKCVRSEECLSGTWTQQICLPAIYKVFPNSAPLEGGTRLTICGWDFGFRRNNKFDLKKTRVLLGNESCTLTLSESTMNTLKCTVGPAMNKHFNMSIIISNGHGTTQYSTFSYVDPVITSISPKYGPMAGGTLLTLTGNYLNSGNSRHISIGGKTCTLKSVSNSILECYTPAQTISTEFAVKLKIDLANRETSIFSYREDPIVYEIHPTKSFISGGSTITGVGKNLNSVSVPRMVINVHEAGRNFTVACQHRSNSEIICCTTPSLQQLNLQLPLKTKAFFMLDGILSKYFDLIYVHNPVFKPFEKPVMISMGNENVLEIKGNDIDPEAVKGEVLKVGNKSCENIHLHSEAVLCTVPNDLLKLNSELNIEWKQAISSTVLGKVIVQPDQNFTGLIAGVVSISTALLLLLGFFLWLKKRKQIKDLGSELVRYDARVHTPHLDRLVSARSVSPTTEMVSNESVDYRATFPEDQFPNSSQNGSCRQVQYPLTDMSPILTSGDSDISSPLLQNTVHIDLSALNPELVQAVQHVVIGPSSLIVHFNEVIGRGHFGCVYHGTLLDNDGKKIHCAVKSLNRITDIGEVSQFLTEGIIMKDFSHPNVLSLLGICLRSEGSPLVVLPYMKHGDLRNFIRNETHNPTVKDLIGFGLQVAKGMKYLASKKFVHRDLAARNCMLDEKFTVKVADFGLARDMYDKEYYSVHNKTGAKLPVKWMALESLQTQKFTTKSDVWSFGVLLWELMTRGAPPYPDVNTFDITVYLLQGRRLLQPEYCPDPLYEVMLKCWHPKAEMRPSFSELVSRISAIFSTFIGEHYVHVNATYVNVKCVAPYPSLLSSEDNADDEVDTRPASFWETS

Structure (SMILES): CN(C(=O)CN1CCOCC1)c1ccc2sc3c(-c4cccc5c(=O)cc(N6CC7CCC(C6)O7)oc45)cccc3c2c1 [NU5455]
- inhibition at 1 µM: -15.1%
